This note sets out measurements from US20240199623A1 (ILDONG PHARMACEUTICAL CO., LTD., priority 2020, published 2024).

In this experiment the target is human wild type-CFTR (Homo sapiens, UniProt P13569). As to the kind of experiment: Cell-based YFP assay. The arrangement: expressed in transfected cells; host or cells: CHO-K1 (Chinese hamster ovary). To be noted: CHO-K1 cells expressing human wild type-CFTR and YFP-H148Q/I152L; forskolin 20 μM = 100% activity; read-out: Cell-based YFP Assay (EC50) Concentration Range. The method, then:
Forskolin (Tocris cat. #1099), Dimethyl sulfoxide (Sigma cat. #D4540), FLUO star Omega microplate reader (BMG Labtech, Ortenberg, Germany), MARS Data Analysis Software (BMG Labtech), GraphPad Prism 5 (GraphPad Software, Inc.) Chinese hamster ovary (CHO-K1) cells expressing human wild type-CFTR and halide sensor YFP-H148Q/I152L were constructed and grown in Dulbecco's modified Eagle's medium (DMEM) supplemented with 10% FBS, 2 mM glutamine, 100 units/ml penicillin and 100 μg/ml streptomycin. Chinese hamster ovary (CHO-K1) cells expressing human wild type-CFTR and halide sensor YFP-H148Q/I152L were seeded in 96-well microplate with 2×10^4 cells/well and incubated in 37° C., 48 hours. Then, each well was washed 3 times with PBS and 100 μL PBS was added in each well. […] YFP fluorescence signal affected by I^− ion influx through CFTR channel was measured in 37° C., FLUO star Omega microplate reader according to the following steps: • i) basal 2 seconds; • ii) 140 mM I^− solution 100 μL addition to each well; • iii) YFP fluorescence signal measurement start after 6 seconds; and • iv) following 14 seconds signal detection in every 0.4 seconds periods. […] Experiments were performed in triplicates and the data was averaged. EC50 values were calculated with MARS Data Analysis Software (BMG Labtech) and GraphPad Prism 5.

human wild type-CFTR, sequence (P13569 whole entry): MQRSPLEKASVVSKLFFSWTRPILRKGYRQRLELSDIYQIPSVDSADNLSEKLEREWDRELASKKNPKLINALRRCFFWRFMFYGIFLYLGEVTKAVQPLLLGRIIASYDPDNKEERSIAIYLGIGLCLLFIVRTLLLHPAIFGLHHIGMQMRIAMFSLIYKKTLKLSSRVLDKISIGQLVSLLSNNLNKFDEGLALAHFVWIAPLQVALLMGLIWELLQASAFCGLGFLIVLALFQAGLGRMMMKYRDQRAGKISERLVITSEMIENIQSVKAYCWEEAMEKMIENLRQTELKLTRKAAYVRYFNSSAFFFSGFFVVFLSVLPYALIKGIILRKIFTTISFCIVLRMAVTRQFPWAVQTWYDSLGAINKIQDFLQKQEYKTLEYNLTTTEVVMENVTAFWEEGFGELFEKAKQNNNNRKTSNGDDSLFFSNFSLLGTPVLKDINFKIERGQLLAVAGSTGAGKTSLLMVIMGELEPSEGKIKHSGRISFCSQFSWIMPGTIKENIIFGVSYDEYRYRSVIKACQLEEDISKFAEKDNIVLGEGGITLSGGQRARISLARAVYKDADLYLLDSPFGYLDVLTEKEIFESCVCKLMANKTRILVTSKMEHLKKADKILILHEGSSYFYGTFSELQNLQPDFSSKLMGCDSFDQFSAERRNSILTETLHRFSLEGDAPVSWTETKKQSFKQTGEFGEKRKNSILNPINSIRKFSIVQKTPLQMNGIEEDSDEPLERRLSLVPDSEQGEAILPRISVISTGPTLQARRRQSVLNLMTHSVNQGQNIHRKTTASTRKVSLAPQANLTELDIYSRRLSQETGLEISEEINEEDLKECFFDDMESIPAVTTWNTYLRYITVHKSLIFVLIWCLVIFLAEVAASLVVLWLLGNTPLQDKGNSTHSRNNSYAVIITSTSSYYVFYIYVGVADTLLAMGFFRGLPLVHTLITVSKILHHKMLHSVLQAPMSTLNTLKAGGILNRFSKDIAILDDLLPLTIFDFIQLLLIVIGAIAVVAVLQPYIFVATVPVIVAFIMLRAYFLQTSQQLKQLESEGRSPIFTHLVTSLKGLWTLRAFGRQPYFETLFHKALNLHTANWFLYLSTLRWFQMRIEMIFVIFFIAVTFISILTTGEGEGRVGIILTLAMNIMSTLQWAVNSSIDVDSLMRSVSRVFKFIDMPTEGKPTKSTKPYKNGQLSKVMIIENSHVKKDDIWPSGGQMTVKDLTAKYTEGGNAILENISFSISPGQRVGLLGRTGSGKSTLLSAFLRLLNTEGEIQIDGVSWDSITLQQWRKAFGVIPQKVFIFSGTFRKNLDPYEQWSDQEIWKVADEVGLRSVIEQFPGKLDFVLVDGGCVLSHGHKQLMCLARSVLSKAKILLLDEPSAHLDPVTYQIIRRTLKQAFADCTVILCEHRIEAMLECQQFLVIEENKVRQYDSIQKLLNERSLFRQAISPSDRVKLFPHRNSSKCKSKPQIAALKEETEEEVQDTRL

For `COc1ccc(-c2ccnc3cc(C(=O)Nc4cccc(C(=O)N5CCNCC5)c4)nn23)cc1OC` [Compound 80, 7-(3,4-dimethoxyphenyl)-N-(3-(piperazine-1-carbonyl)phenyl)pyrazolo [1,5-a]pyrimidine-2-carboxamide], the EC50 was no less than 2000 nM.
For the compound `COc1ccc(-c2ccnc3cc(C(=O)Nc4ccc(C(=O)NCCO)cc4)nn23)cc1OC` [Compound 53, 7-(3,4-dimethoxyphenyl)-N-(4-((2-hydroxyethyl)carbamoyl)phenyl)pyrazolo[1,5-a] pyrimidine-2-carboxamide], the EC50 was 200 to 2000 nM.
Next, `COc1ccc(-c2ccnc3cc(C(=O)NC45CC(C(=O)N6CCNCC6)(C4)C5)nn23)cc1OC` [Compound 98, 7-(3,4-dimethoxyphenyl)-N-(3-(piperazine-1-carbonyl)bicyclo [1.1.1]pentan-1-yl)pyrazolo[1,5-a] pyrimidine-2-carboxamide]: no less than 2000 nM; `COc1ccc(-c2ccnc3cc(C(=O)N4CCN(c5ccccn5)CC4)nn23)cc1OC` [Compound 153, (7-(3,4-dimethoxyphenyl)pyrazolo[1,5-a]pyrimidin-2-yl)(4-(pyridin-2-yl)piperazin-1-yl)methanone]: 200 to 2000 nM; `CCCCOc1ccc(NC(=O)c2cc3nccc(-c4ccc(OC)c(OC)c4)n3n2)cc1` [Compound 229, N-(4-butoxyphenyl)-7-(3,4-dimethoxyphenyl)pyrazolo [1,5-a]pyrimidine-2-carboxamide]: less than 200 nM.
For `COC(=O)c1ccc(NC(=O)c2cc3nccc(-c4ccccc4)n3n2)cc1` [Compound 305, methyl 4-(7-phenylpyrazolo[1,5-a]pyrimidine-2-carboxamido)benzoate] the value was no less than 2000 nM; for `COC(=O)[C@@H](C)NC(=O)c1ccc(NC(=O)c2cc3nccc(-c4ccc(OC)c(OC)c4)n3n2)cc1` [Compound 64, methyl (4-(7-(3,4-dimethoxyphenyl)pyrazolo[1,5-a]pyrimidine-2-carboxamido)benzoyl)-D-alaninate], less than 200 nM.
For `COc1ccc(-c2ccnc3cc(C(=O)Nc4ccc(C(=O)N[C@@H](C)C(=O)O)cc4)nn23)cc1OC` [Compound 44, (4-(7-(3,4-dimethoxyphenyl)pyrazolo[1,5-a]pyrimidine-2-carboxamido)benzoyl)-L-alanine] the value was 200 to 2000 nM; for `COc1ccc(-c2ccnc3cc(C(=O)N4CC[C@@H](O)C4)nn23)cc1OC` [Compound 150, (R)-(7-(3,4-dimethoxyphenyl)pyrazolo[1,5-a]pyrimidin-2-yl)(3-hydroxypyrrolidin-1-yl)methanone], no less than 2000 nM; for `COc1ccc(-c2ccnc3cc(C(=O)N4CCN(C(=O)c5cccc(Cl)c5)[C@@H](C)C4)nn23)cc1OC` [Compound 261, (S)-(4-(3-chlorobenzoyl)-3-methylpiperazin-1-yl) (7-(3,4-dimethoxyphenyl)pyrazolo[1,5-a]pyrimidin-2-yl)methanone], 200 to 2000 nM.
In the case of `COc1ccc(-c2ccnc3cc(C(=O)N4CCNC(C)(C)C4)nn23)cc1OC` [Compound 182, (7-(3,4-dimethoxyphenyl)pyrazolo[1,5-a]pyrimidin-2-yl)(3,3-dimethylpiperazin-1-yl)methanone], the EC50 is no less than 2000 nM.
Regarding `COc1ccc(-c2ccnc3cc(C(=O)N4CCN(C(=O)c5cccc(F)c5)[C@@H](C)C4)nn23)cc1OC` [Compound 263, (S)-(7-(3,4-dimethoxyphenyl)pyrazolo[1,5-a]pyrimidin-2-yl)(4-(3-fluorobenzoyl)-3-methylpiperazin-1-yl) methanone], the EC50 was 200 to 2000 nM.
For `COC(=O)c1ccc(NC(=O)c2cc3nccc(-c4cccc(OC)c4)n3n2)cc1` [Compound 25, methyl 4-(7-(3-methoxyphenyl)pyrazolo [1,5-a]pyrimidine-2-carboxamido) benzoate] the value was no less than 2000 nM.
Next, `CCOc1ccc(NC(=O)c2cc3nccc(-c4cccs4)n3n2)cc1` [Compound 303, N-(4-ethoxyphenyl)-7-(thiophen-2-yl) pyrazolo[1,5-a]pyrimidine-2-carboxamide]: no less than 2000 nM; `COc1ccc(-c2ccnc3cc(C(=O)Nc4ccc(C(=O)N[C@@H](CCSC)C(=O)O)cc4)nn23)cc1OC` [Compound 87, (4-(7-(3,4-dimethoxyphenyl)pyrazolo[1,5-a]pyrimidine-2-carboxamido)benzoyl)-L-methionine]: no less than 2000 nM.
Next, `CCN1CCN(c2ccc(NC(=O)c3cc4nccc(-c5ccc(OC)c(OC)c5)n4n3)cc2)CC1` [Compound 270, 7-(3,4-dimethoxyphenyl)-N-(4-(4-ethylpiperazin-1-yl)phenyl)pyrazolo[1,5-a]pyrimidine-2-carboxamide]: less than 200 nM; `COc1ccc(-c2ccnc3cc(C(=O)Nc4ccc(OC)c(F)c4F)nn23)cc1OC` [Compound 326, N-(2,3-difluoro-4-methoxyphenyl)-7-(3,4-dimethoxyphenyl)pyrazolo [1,5-a]pyrimidine-2-carboxamide]: 200 to 2000 nM; `CCCCCCCCCCOC(=O)[C@H]1CC[C@H](NC(=O)c2cc3nccc(-c4ccc(OC)c(OC)c4)n3n2)CC1` [Compound 333, decyl (1r,4r)-4-(7-(3,4-dimethoxyphenyl)pyrazolo [1,5-a]pyrimidine-2-carboxamido)cyclohexane-1-carboxylate]: no less than 2000 nM.
Consider `COc1ccc(-c2ccnc3cc(C(=O)Nc4ccc(C(=O)N5CCN(C)CC5)nc4)nn23)cc1OC` [Compound 265, 7-(3,4-dimethoxyphenyl)-N-(6-(4-methylpiperazine-1-carbonyl)pyridin-3-yl)pyrazolo[1,5-a] pyrimidine-2-carboxamide], for which the EC50 is no less than 2000 nM.
For `COc1ccc(-c2ccnc3cc(C(=O)N4CCN(C(=O)c5ccccc5F)[C@@H](C)C4)nn23)cc1OC` [Compound 368, (S)-(7-(3,4-dimethoxyphenyl)pyrazolo[1,5-a]pyrimidin-2-yl)(4-(2-fluorobenzoyl)-3-methylpiperazin-1-yl)methanone] the value was less than 200 nM; for `COc1ccc(-c2ccnc3cc(C(=O)NC4CCC(N(C)C)CC4)nn23)cc1OC` (stereo not shown) [Compound 27, 7-(3,4-dimethoxyphenyl)-N-(4-(dimethylamino)cyclohexyl) pyrazolo[1,5-a]pyrimidine-2-carboxamide], no less than 2000 nM; for `COc1ccc(-c2ccnc3cc(C(=O)N4CCN(C(C)C)CC4)nn23)cc1OC` [Compound 179, (7-(3,4-dimethoxyphenyl)pyrazolo[1,5-a]pyrimidin-2-yl)(4-isopropylpiperazin-1-yl)methanone], no less than 2000 nM.
For `CCOc1ccc(NC(=O)c2cc3nccc(-c4ccc(F)c(F)c4)n3n2)cc1` [Compound 293] the value was no less than 2000 nM.
Regarding `COc1ccc(-c2ccnc3cc(C(=O)N4CCC(=O)C4)nn23)cc1OC` [Compound 117, 1-(7-(3,4-dimethoxyphenyl)pyrazolo[1,5-a]pyrimidine-2-carbonyl) pyrrolidin-3-one], the EC50 is no less than 2000 nM.
Next, `COc1ccc(-c2ccnc3cc(C(=O)N4CCCc5cc(C(=O)O)ccc54)nn23)cc1OC` [Compound 233, 1-(7-(3,4-dimethoxyphenyl)pyrazolo[1,5-a]pyrimidine-2-carbonyl)-1,2,3,4-tetrahydroquinoline-6-carboxylic acid]: no less than 2000 nM.
Take `COc1ccc(-c2ccnc3cc(C(=O)N4CCN(c5ncccn5)CC4)nn23)cc1OC` [Compound 185, (7-(3,4-dimethoxyphenyl)pyrazolo[1,5-a]pyrimidin-2-yl)(4-(pyrimidin-2-yl)piperazin-1-yl)methanone]: the EC50 lay within 200 to 2000 nM.
In the case of `COc1ccc(-c2ccnc3cc(C(=O)N4CCN(C(=O)c5cc(F)ccc5F)[C@@H](C)C4)nn23)cc1OC` [Compound 356], the EC50 was less than 200 nM.
Next, `COc1ccc(-c2ccnc3cc(C(=O)N4CCN(Cc5ccccc5)C(C)(C)C4)nn23)cc1OC` [Compound 207, (4-benzyl-3,3-dimethylpiperazin-1-yl)(7-(3,4-dimethoxyphenyl)pyrazolo [1,5-a]pyrimidin-2-yl)methanone]: 200 to 2000 nM.
For `COC(=O)c1ccc(N(C)C(=O)c2cc3nccc(-c4ccc(OC)c(OC)c4)n3n2)cc1` [Compound 183, methyl 4-(7-(3,4-dimethoxyphenyl)-N-methylpyrazolo[1,5-a]pyrimidine-2-carboxamido)benzoate] the value was 200 to 2000 nM; for `COc1ccc(-c2ccnc3cc(C(=O)Nc4cc(C(F)(F)F)cc(C(F)(F)F)c4)nn23)cc1OC` [Compound 291, N-(3,5-bis(trifluoromethyl)phenyl)-7-(3,4-dimethoxyphenyl)pyrazolo [1,5-a]pyrimidine-2-carboxamide], no less than 2000 nM; for `CCCCCCCCCCOC(=O)c1ccc(NC(=O)c2cc3nccc(-c4ccc(OC)c(OC)c4)n3n2)cc1` [Compound 337, decyl 4-(7-(3,4-dimethoxy-phenyl)pyrazolo[1,5-a]pyrimidine-2-carboxamido)benzoate], no less than 2000 nM.
